The results in this text go back to PubChem BioAssay (NCI).

What all share (test): growth of human tumour cells (NCI), 48 h
Test [1] concerns HCT-15 colon.
Test [2] relates to HT29 colon.
Test [3] has as its system KM12 colon.
Test [4] concerns LOX IMVI melanoma.
For test [5], the system named is MCF7 breast.
For test [6], the system named is MDA-MB-231 breast.
Test [7] concerns OVCAR-4 ovarian.
For test [8], the system named is OVCAR-5 ovarian.
In test [9] the test system is SF-539 CNS.
The test system of test [10] is T-47D breast.

Structures are written as SMILES.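 Grown in 96-well plates, cells were treated for 48 hours with each compound at five concentrations. Insufficient inhibition: endpoint recorded as highest concentration tested. The concentration for 50% growth inhibition is given as GI50. TGI denotes the concentration required for complete inhibition of growth.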 Some results are limits rather than exact numbers.

As for `O=[N+]([O-])c1ccc(N/N=C/c2ccccc2O)nc1`, the GI50 in test [1] was 0.639 µM; in [2], 0.975 µM; in test [3] it was 1.19 µM; in [4], 0.92 µM; in test [5], 0.928 µM; in [6], 1.46 µM. The GI50 in test [7] is 0.408 µM; in test [8], 7.33 µM; in [9], 2.68 µM; in test [10], 3.2 µM. In addition, the TGI in test [1], in test [2], in test [3], in [4], in test [5] and in test [6] was greater than 100 µM in each case. The TGI in test [7], in [8], in [9] and in [10] was greater than 100 µM each time.

`O=C1NC(=O)C(N2CCc3ccccc32)=C1c1ccc(Cl)cc1`: the GI50 in test [1], in test [2], in test [3], in test [4], in test [5] and in test [6] was greater than 25 µM throughout. The GI50 in test [7], in test [8], in test [9] and in test [10] was greater than 25 µM each time. Also, the TGI in test [1], in [2], in test [3], in test [4], in test [5] and in test [6] was greater than 25 µM in each case. Also, the TGI in test [7], in test [8], in [9] and in test [10] was greater than 25 µM in each case.

With `O=C(O)CN(CC(=O)O)c1ccccc1`, the TGI in test [1], in [2], in test [3], in test [4], in test [5] and in test [6] was greater than 100 µM in each case. The TGI in test [7], in test [8], in [9] and in [10] was greater than 100 µM each time.

For the compound `O=C(O)c1ccccc1-c1ccccc1C(=O)Nc1ccc2c(c1)Cc1ccccc1-2`, the TGI in test [1] was 56 µM; in [2] it was 70.1 µM; in test [3], greater than 100 µM; in test [4] it was 54.5 µM; in [5], greater than 100 µM; in [6], greater than 100 µM. In addition, the TGI in [7] was greater than 100 µM; in test [8], 49.2 µM; in test [9], 44.6 µM; in [10], greater than 100 µM.

In the case of `Cc1ccc(-n2nnc3c(sc4ccccc43)c2=O)cc1`, the GI50 in test [1] is greater than 100 µM; in test [2], 3.59 µM; in test [3] it was 3.81 µM; in [4], 4.09 µM; in [5], 43.7 µM; in test [6] it was 4.04 µM. Further, the GI50 was 2.02 µM in test [7], greater than 100 µM in [8], 5.23 µM in [9] and 30.4 µM in test [10]. Moreover, the TGI in test [1], in [2], in test [3], in test [4], in [5] and in test [6] was greater than 100 µM in each case. In addition, the TGI in test [7] was 4.82 µM; in test [8], greater than 100 µM; in test [9], 30.6 µM; in test [10], greater than 100 µM.

Consider `CCOC(=O)c1c(C(F)(F)F)n([O-])c2ccc(Cl)cc2[n+]1=O`, for which the GI50 was 1.52 µM in test [1]; 1.9 µM in test [2]; 2.07 µM in [3]; 1.57 µM in test [4]; 1.98 µM in test [5]; 2.01 µM in test [6]. Also, the GI50 in [7] was 2.16 µM; in [8], 1.76 µM; in test [9], 1.74 µM; in test [10] it was 2.03 µM. Besides, the TGI in test [1] is 3.16 µM; in test [2], 3.83 µM; in test [3] it was 3.8 µM; in [4] it was 3.08 µM; in test [5] it was 4.24 µM; in test [6] it was 4.45 µM. Further, the TGI in test [7] amounted to 5.73 µM; in [8] it was 3.32 µM; in [9] it was 3.21 µM; in test [10] it was 4.38 µM.

As to `Cc1ccc(-c2c3c(N)nc(-c4ccncc4)nc3nc3c2c(C)nn3-c2ccccc2)cc1`, the GI50 in test [1] was 13.6 µM; in test [2], 11.5 µM; in [3] it was 31.4 µM; in test [4], 2.33 µM; in test [5] it was 3.63 µM; in [6], 4.51 µM. The GI50 in test [7] is 7.44 µM; in [8] it was greater than 37.5 µM; in test [9], 2.26 µM; in test [10], 1.84 µM. The TGI is greater than 37.5 µM in [1]; greater than 37.5 µM in [2]; greater than 37.5 µM in [3]; 14.5 µM in [4]; 24.4 µM in [5]; 13.4 µM in test [6]. In addition, the TGI in [7] is 33.3 µM; in test [8] it was greater than 37.5 µM; in test [9], 7.57 µM; in test [10] it was greater than 37.5 µM.

On to `N#Cc1ccc(N2Cc3cc(Cl)ccc3OC3=C2C(=O)N(Cc2ccc(F)cc2)C3=O)cc1`, for which the GI50 in test [1] is 0.543 µM; in test [2], 0.587 µM; in test [3], 1.83 µM; in test [4], 0.453 µM; in test [5] it was 0.712 µM; in test [6], 0.636 µM. Further, the GI50 in [7] was 0.206 µM; in [8], 0.737 µM; in test [9], 0.557 µM; in test [10], 0.502 µM. For the same compound, the TGI worked out at 1.43 µM in test [1]; 1.35 µM in test [2]; 6.59 µM in [3]; 0.908 µM in [4]; 3.03 µM in [5]; 1.51 µM in test [6]. In addition, the TGI was found to be 0.563 µM in test [7], 1.93 µM in [8], 1.07 µM in [9] and 1.18 µM in [10].

In the case of `CS(=O)/C(C#N)=C\C=C\c1cccc(Cl)c1` (stereo not drawn), the GI50 is 1.11 µM in test [1]; 3.26 µM in [2]; 1.42 µM in test [3]; 1.31 µM in [4]; 0.579 µM in [5]; 2.73 µM in test [6]. Besides, the GI50 is 3.63 µM in test [7], 1.79 µM in test [9] and 2.67 µM in test [10]. For the same compound, the TGI in [1] was found to be 4.04 µM; in test [2], 13.7 µM; in test [3], 4 µM; in test [4], 2.73 µM; in test [5], 5.72 µM; in test [6], 11.7 µM. In addition, the figures for the TGI in test [7], in [9] and in test [10] were 21.1 µM, 7.5 µM and 17 µM, respectively.
